Counter-ions that a name gives are not always drawn.
The compounds below were run against T1, acetylcholinesterase (Mus musculus, UniProt P21836) (assay: biochemical). Settings: not given.
T1 construct: A mouse brain homogenate was used as an acetylcholinesterase source; from tissue; host or cells: mouse brain homogenate
Format: biochemical

T1 sequence (P21836 32-614): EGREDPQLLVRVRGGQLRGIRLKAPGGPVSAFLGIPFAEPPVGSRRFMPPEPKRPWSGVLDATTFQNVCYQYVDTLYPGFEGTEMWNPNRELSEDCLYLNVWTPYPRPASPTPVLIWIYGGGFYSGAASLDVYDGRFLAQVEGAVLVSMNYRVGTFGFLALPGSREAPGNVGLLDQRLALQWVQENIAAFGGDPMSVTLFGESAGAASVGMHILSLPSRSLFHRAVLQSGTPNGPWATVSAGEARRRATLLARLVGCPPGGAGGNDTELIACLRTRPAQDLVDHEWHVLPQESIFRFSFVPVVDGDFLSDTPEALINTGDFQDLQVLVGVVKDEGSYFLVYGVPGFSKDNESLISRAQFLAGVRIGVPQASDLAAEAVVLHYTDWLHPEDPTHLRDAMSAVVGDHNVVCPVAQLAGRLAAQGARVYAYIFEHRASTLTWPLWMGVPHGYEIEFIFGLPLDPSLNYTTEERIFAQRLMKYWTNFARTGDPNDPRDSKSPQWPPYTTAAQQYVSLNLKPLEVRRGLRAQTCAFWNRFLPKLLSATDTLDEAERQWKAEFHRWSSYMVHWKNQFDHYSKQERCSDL

| Compound | IC50 [nM] |
| --- | --- |
| O=C1c2cc3c(cc2CC1CC1CCN(Cc2ccccc2)CC1)OCO3 (stereo not drawn) [Example 199] | 23 |
| CN1CC(=O)N(CCC2CCN(Cc3ccccc3)CC2)c2ccccc2C1=O [Example 70] | 280 |
| COc1ccc2c(c1OC)CC(=CC1CCN(Cc3ccccc3)CC1)C2=O [Example 208] | 62 |
| COc1cccc2c1CCCC(=O)N2CCC1CCN(Cc2ccccc2)CC1 [Example 65] | 1.6 |
| CN1c2ccccc2C(=O)N(CCC2CCN(Cc3ccccc3)CC2)c2ccccc21 [Example 12, 10-[4'-(1'-Benzylpiperidine)ethyl]-10,11-dihydro-5-methyl-5H-dibenzo[b,e][1,4]diazepin-11-one hydrochloride] | 40 |
| O=C(NCC1CCN(Cc2ccccc2)C1)c1ccccc1 (stereo not drawn) [Example 21, N-[3'-(1'-Benzylpyrrolidine)methyl]benzamide hydrochloride] | 50000 |
| COc1cc2c(c(OC)c1OC)C(=O)C(=CC1CCN(Cc3ccccc3)CC1)C2 [Example 210] | 60 |
| COc1cc2c(cc1OC)C(=O)C(CC1CCN(Cc3cccc4ccccc34)CC1)C2 (stereo not drawn) [Example 241] | 220 |
| O=C1CCCc2ccccc2N1CCC1CCN(Cc2ccccc2)CC1 [Example 10, 1-[4'-(1'-Benzylpiperidine)ethyl]-1,2,3,4-tetrahydro-5H-1-benzazepin-2-one hydrochloride] | 9 |
| CCOC(=O)c1nccnc1C(=O)NCCC1CCN(Cc2ccccc2)CC1 [Example 72] | 20 |
| COc1ccc2c(c1OC)C(=O)C(=CC1CCN(Cc3ccccc3)CC1)C2 [Example 209] | 430 |
| O=C1c2ccccc2Oc2ccccc2N1CCC1CCN(Cc2ccccc2)CC1 [Example 176] | 4 |
| COc1cc2c(cc1O)C(=O)C(CC1CCN(Cc3ccccc3)CC1)C2 (stereo not drawn) [Example 196] | 1.3 |
| COc1cc2c(cc1O)C(=O)C(CC1CCNCC1)C2 (stereo not drawn) [Example 245] | 5000 |
| O=C(NCCC1CCN(Cc2ccc(O)cc2)CC1)c1cnc2ccccc2n1 [Example 14, N-[4'-(1'-(p-Hydroxybenzyl)piperidine)ethyl]-2-quinoxalinecarboxylic amide hydrochloride] | 38 |
| COc1cc2c(cc1O)C(=O)C(=CC1CCN(Cc3ccccc3)CC1)C2 [Example 214] | 8.4 |
| COc1ccc(CN2CCC(CC3Cc4cc(OC)c(OC)cc4C3=O)CC2)cc1OC (stereo not drawn) [Example 243] | 4000 |
| CCOC(=O)N1CCC(CC2Cc3cc(OC)c(OC)cc3C2=O)CC1 (stereo not drawn) [Example 182, 4-[(5,6-Dimethoxy-1-indanon)-2-yl]methyl-1-ethoxycarbonylpiperidine] | 800 |
| COc1cc(OC)cc(N(CCC2CCN(Cc3ccccc3)CC2)C(=O)C=Cc2ccc(F)cc2)c1 [Example 18, N-(3'5'-Dimethoxyphenyl)-N-[4'-(1'--benzylpiperidyl)-ethyl]-4-fluorocinnamamide hydrichloride] | 680 |
| COc1cc2c(cc1OC)C(=O)C(CCCC1CCN(Cc3ccccc3)CC1)C2 (stereo not drawn) [Example 187, 1-Benzyl-4-[3-[(5,6-dimethoxy-1-indanon)-2-yl]]propylpiperidine hydrochloride] | 4400 |
| COc1cc2c(cc1OC)C(=O)C(=CC=CC1CCN(Cc3ccccc3)CC1)C2 [Example 224, 1-benzyl-4-((5,6-dimethoxy-1-oxoindanon)-2-yl)propenylpiperidine] | 3 |
| O=C(CCC1CCN(Cc2ccccc2)CC1)Nc1ccncc1 [Example 48] | 19 |

Same assay, conditions: in vitro, mouse brain homogenate; Table 10; read-out: Inhibitory activity on AChE IC50

| Compound | IC50 [nM] |
| --- | --- |
| COc1cc2c(c(OC)c1OC)C(=O)C(CC1CCN(Cc3ccccc3)CC1)C2 (stereo not drawn) [Example 192] | 13 |

Same assay, conditions: read-out: AChE inhibitory activity IC50

| Compound | IC50 [nM] |
| --- | --- |
| O=C(c1ccc(F)cc1)N(CCC1CCN(Cc2ccccc2)CC1)c1ccccc1 [Example 89] | 18 |
| COc1ccc(C(=O)CCCC2CCN(Cc3ccccc3)CC2)cc1 [Example 23, 4-[4'-N-Benzyl)piperidyl]-p-methoxybutyrophenone hydrochloride] | 72 |
| O=C1Nc2ccccc2CN1CCC1CCN(Cc2ccccc2)CC1 [Example 8] | 13 |

Same assay, conditions: read-out: Inhibitory activity on AChE IC50

| Compound | IC50 [nM] |
| --- | --- |
| COc1cc2c(cc1OC)C(=O)C(CCCCC1CCN(Cc3ccccc3)CC1)C2 (stereo not drawn) [Example 204] | 35 |

Reference: patent US4895841A (priority 1987, dated 1990)
